Where a SMILES comes first, the peptide text is derived from it. Bridges are numbered along the chain shown (N, C = ends). [ ]: non-standard residue; d: D form. 2Nal = N[C@@H](Cc1ccc2ccccc2c1)C(=O)O; Cit = NC(=O)NCCC[C@H](N)C(=O)O

The term CC50 denotes the concentration giving 50% cytotoxicity. Lower therefore signals harm at low concentration.

The nature of assay [1]: Ratio of cytotoxic concentration (CC50) in test-I to that of EC50 of compound. It counts as functional, Homo sapiens.
Assay [2] can be described thus: Ratio of cytotoxic concentration (CC50) in test-II to that of EC50 of compound. It counts as functional, Homo sapiens.
The test system of assay [3] is MT4. The assay is described as follows: Compound was tested for reduction of the viability of mock infected MT-4 cell in test-I. It counts as functional. The following applies: Homo sapiens.
Assay [4] has as its system MT4. The assay is described as follows: Compound was tested for reduction of the viability of mock infected MT-4 cell in test-II. The settings on record: Homo sapiens. It counts as functional.

On to `NCCCC[C@@H]1NC(=O)[C@H](CCCN=C(N)N)NC(=O)[C@H](Cc2ccc(O)cc2)NC(=O)[C@@H](NC(=O)[C@H](Cc2c[nH]c3ccccc23)NC(=O)[C@H](CCCN=C(N)N)NC(=O)[C@@H](N)CCCN=C(N)N)CSSC[C@@H](C(=O)N[C@@H](CCCN=C(N)N)C(=O)O)NC(=O)[C@H](CCCNC(N)=O)NC(=O)[C@H](CCCN=C(N)N)NC(=O)[C@H](Cc2ccc(O)cc2)NC(=O)[C@@H]2CCCN2C(=O)[C@@H](CCCCN)NC1=O`, for which the Ratio in assay [1] is >>120; in assay [2], 23000. Also, the CC50 in the assay on MT4 [3] was above 1 µM; with MT4 [4], 190 µM.
Take `C[C@@H]1NC(=O)[C@H](CCCN=C(N)N)NC(=O)[C@H](Cc2ccc(O)cc2)NC(=O)[C@@H](NC(=O)[C@H](Cc2ccc3ccccc3c2)NC(=O)[C@H](CCCN=C(N)N)NC(=O)[C@@H](N)CCCN=C(N)N)CSSC[C@@H](C(=O)N[C@@H](CCCN=C(N)N)C(=O)O)NC(=O)[C@H](CCCNC(N)=O)NC(=O)[C@H](CCCN=C(N)N)NC(=O)[C@H](Cc2ccc(O)cc2)NC(=O)[C@@H]2CCCN2C(=O)[C@@H](CCCCN)NC1=O`: the Ratio in assay [1] was above 1800. The compound further returned a cytotoxic concentration (CC50) in the assay with MT4 [3] above 80 µM.
Take `NCCCC[C@@H]1NC(=O)[C@H](CCCNC(N)=O)NC(=O)[C@H](Cc2ccc(O)cc2)NC(=O)[C@@H](NC(=O)[C@H](Cc2ccc3ccccc3c2)NC(=O)[C@H](CCCN=C(N)N)NC(=O)[C@@H](N)CCCN=C(N)N)CSSC[C@@H](C(=O)N[C@@H](CCCN=C(N)N)C(=O)O)NC(=O)[C@H](CCCNC(N)=O)NC(=O)[C@H](CCCN=C(N)N)NC(=O)[C@H](Cc2ccc(O)cc2)NC(=O)[C@@H]2CCCN2C(=O)[C@@H](CCCCN)NC1=O`: the Ratio in assay [1] is listed as above 29000; in assay [2] it was 160000. Besides, the CC50 in the assay with MT4 [3] is above 80 µM; in the assay on MT4 [4] it was 310 µM.
On to `NCCCC[C@@H]1NC(=O)[C@H](CCCN=C(N)N)NC(=O)[C@H](Cc2ccc(O)cc2)NC(=O)[C@@H](NC(=O)[C@H](Cc2ccc3ccccc3c2)NC(=O)[C@H](CCCN=C(N)N)NC(=O)[C@@H](N)CCCN=C(N)N)CSSC[C@@H](C(=O)N[C@@H](CCCNC(N)=O)C(=O)O)NC(=O)[C@H](CCCNC(N)=O)NC(=O)[C@H](CCCN=C(N)N)NC(=O)[C@H](Cc2ccc(O)cc2)NC(=O)[C@@H]2CCCN2C(=O)[C@@H](CCCCN)NC1=O`, for which the Ratio is listed as above 220 in assay [1] and 200 in assay [2]. In addition, the CC50 with MT4 [3] was above 40 µM; in the assay on MT4 [4] it was 180 µM.
Take `C[C@H](NC(=O)[C@@H](N)CCCN=C(N)N)C(=O)N[C@@H](Cc1ccc2ccccc2c1)C(=O)N[C@H]1CSSC[C@@H](C(=O)N[C@@H](CCCN=C(N)N)C(=O)O)NC(=O)[C@H](CCCNC(N)=O)NC(=O)[C@H](CCCN=C(N)N)NC(=O)[C@H](Cc2ccc(O)cc2)NC(=O)[C@@H]2CCCN2C(=O)[C@@H](CCCCN)NC(=O)[C@H](CCCCN)NC(=O)[C@H](CCCN=C(N)N)NC(=O)[C@H](Cc2ccc(O)cc2)NC1=O`: the Ratio in assay [1] is above 64. In the assay on MT4 [3], this compound gave a CC50 above 80 µM.
As to `C[C@H](NC(=O)[C@H](CCCN=C(N)N)NC(=O)[C@@H](N)CCCN=C(N)N)C(=O)N[C@H]1CSSC[C@@H](C(=O)N[C@@H](CCCN=C(N)N)C(=O)O)NC(=O)[C@H](CCCNC(N)=O)NC(=O)[C@H](CCCN=C(N)N)NC(=O)[C@H](Cc2ccc(O)cc2)NC(=O)[C@@H]2CCCN2C(=O)[C@@H](CCCCN)NC(=O)[C@H](CCCCN)NC(=O)[C@H](CCCN=C(N)N)NC(=O)[C@H](Cc2ccc(O)cc2)NC1=O`, the Ratio in assay [1] was above 34. The same compound returned a CC50 with MT4 [3] above 80 µM.
The corresponding values for `C[C@@H]1NC(=O)[C@@H](NC(=O)[C@H](Cc2ccc3ccccc3c2)NC(=O)[C@H](CCCN=C(N)N)NC(=O)[C@@H](N)CCCN=C(N)N)CSSC[C@@H](C(=O)N[C@@H](CCCN=C(N)N)C(=O)O)NC(=O)[C@H](CCCNC(N)=O)NC(=O)[C@H](CCCN=C(N)N)NC(=O)[C@H](Cc2ccc(O)cc2)NC(=O)[C@@H]2CCCN2C(=O)[C@@H](CCCCN)NC(=O)[C@H](CCCCN)NC(=O)[C@H](CCCN=C(N)N)NC1=O` are above 230 and above 80 µM.
For the compound `NCCCC[C@@H]1NC(=O)[C@H](CCCN=C(N)N)NC(=O)[C@H](Cc2ccc(O)cc2)NC(=O)[C@@H](NC(=O)[C@H](Cc2ccc3ccccc3c2)NC(=O)[C@H](CCCN=C(N)N)NC(=O)[C@@H](N)CCCNC(N)=O)CSSC[C@@H](C(=O)N[C@@H](CCCN=C(N)N)C(=O)O)NC(=O)[C@H](CCCNC(N)=O)NC(=O)[C@H](CCCN=C(N)N)NC(=O)[C@H](Cc2ccc(O)cc2)NC(=O)[C@@H]2CCCN2C(=O)[C@@H](CCCCN)NC1=O`, the results for the Ratio in assay [1] and in assay [2] were above 5300 and 18000, respectively. For the same compound, the figures for the CC50 with MT4 [3] and with MT4 [4] were above 80 µM and 280 µM, respectively.
As to `C[C@@H]1NC(=O)[C@H](CCCN=C(N)N)NC(=O)[C@H](Cc2ccc(O)cc2)NC(=O)[C@@H]2CCCN2C(=O)[C@@H](CCCCN)NC(=O)[C@H](CCCCN)NC(=O)[C@H](CCCN=C(N)N)NC(=O)[C@H](Cc2ccc(O)cc2)NC(=O)[C@@H](NC(=O)[C@H](Cc2ccc3ccccc3c2)NC(=O)[C@H](CCCN=C(N)N)NC(=O)[C@@H](N)CCCN=C(N)N)CSSC[C@@H](C(=O)N[C@@H](CCCN=C(N)N)C(=O)O)NC1=O`, in assay [1], the Ratio worked out at 3300. In the assay with MT4 [3], this compound yielded a CC50 of 55 µM.
The like results for `C[C@@H]1NC(=O)[C@H](Cc2ccc(O)cc2)NC(=O)[C@@H]2CCCN2C(=O)[C@@H](CCCCN)NC(=O)[C@H](CCCCN)NC(=O)[C@H](CCCN=C(N)N)NC(=O)[C@H](Cc2ccc(O)cc2)NC(=O)[C@@H](NC(=O)[C@H](Cc2ccc3ccccc3c2)NC(=O)[C@H](CCCN=C(N)N)NC(=O)[C@@H](N)CCCN=C(N)N)CSSC[C@@H](C(=O)N[C@@H](CCCN=C(N)N)C(=O)O)NC(=O)[C@H](CCCNC(N)=O)NC1=O` were, in that order, above 4800 and above 80 µM.
On to `NCCCC[C@@H]1NC(=O)[C@H](CCCN=C(N)N)NC(=O)[C@H](Cc2ccc(O)cc2)NC(=O)[C@@H](NC(=O)[C@H](Cc2ccc3ccccc3c2)NC(=O)[C@H](CCCN=C(N)N)NC(=O)[C@@H](N)CCCN=C(N)N)CSSC[C@@H](C(=O)N[C@@H](CCCN=C(N)N)C(=O)O)NC(=O)[C@H](CCCNC(N)=O)NC(=O)[C@H](CCCN=C(N)N)NC(=O)[C@H](Cc2ccc(O)cc2)NC(=O)[C@@H]2CCCN2C(=O)[C@@H](CCCNC(N)=O)NC1=O`, for which the Ratio in assay [1] is recorded as above 20000; in assay [2], 69000. For the same compound, the CC50 was above 80 µM with MT4 [3] and 280 µM in the assay on MT4 [4].
The corresponding values for `NCCCC[C@H]1NC(=O)[C@H](CCCNC(N)=O)NC(=O)[C@H](CCCN=C(N)N)NC(=O)[C@H](Cc2ccc(O)cc2)NC(=O)[C@@H](NC(=O)[C@H](Cc2ccc3ccccc3c2)NC(=O)[C@H](CCCN=C(N)N)NC(=O)[C@@H](N)CCCN=C(N)N)CSSC[C@@H](C(=O)N[C@@H](CCCN=C(N)N)C(=O)O)NC(=O)[C@H](CCCNC(N)=O)NC(=O)[C@H](CCCN=C(N)N)NC(=O)[C@H](Cc2ccc(O)cc2)NC(=O)[C@@H]2CCCN2C1=O` are above 5000, above 16000, above 80 µM and 270 µM.
With `C[C@@H]1NC(=O)[C@@H]2CCCN2C(=O)[C@@H](CCCCN)NC(=O)[C@H](CCCCN)NC(=O)[C@H](CCCN=C(N)N)NC(=O)[C@H](Cc2ccc(O)cc2)NC(=O)[C@@H](NC(=O)[C@H](Cc2ccc3ccccc3c2)NC(=O)[C@H](CCCN=C(N)N)NC(=O)[C@@H](N)CCCN=C(N)N)CSSC[C@@H](C(=O)N[C@@H](CCCN=C(N)N)C(=O)O)NC(=O)[C@H](CCCNC(N)=O)NC(=O)[C@H](CCCN=C(N)N)NC1=O`, the Ratio in assay [1] was above 4500. Further, the CC50 in the assay on MT4 [3] is above 80 µM.
On to `C[C@H]1NC(=O)[C@H](CCCCN)NC(=O)[C@H](CCCN=C(N)N)NC(=O)[C@H](Cc2ccc(O)cc2)NC(=O)[C@@H](NC(=O)[C@H](Cc2ccc3ccccc3c2)NC(=O)[C@H](CCCN=C(N)N)NC(=O)[C@@H](N)CCCN=C(N)N)CSSC[C@@H](C(=O)N[C@@H](CCCN=C(N)N)C(=O)O)NC(=O)[C@H](CCCNC(N)=O)NC(=O)[C@H](CCCN=C(N)N)NC(=O)[C@H](Cc2ccc(O)cc2)NC(=O)[C@@H]2CCCN2C1=O`, for which the Ratio in assay [1] is given as above 5200. The compound also registered a CC50 in the assay with MT4 [3] above 80 µM.
The corresponding values for `CC(N)C(=O)N[C@@H](CCCN=C(N)N)C(=O)N[C@@H](Cc1ccc2ccccc2c1)C(=O)N[C@H]1CSSC[C@@H](C(=O)N[C@@H](CCCN=C(N)N)C(=O)O)NC(=O)[C@H](CCCNC(N)=O)NC(=O)[C@H](CCCN=C(N)N)NC(=O)[C@H](Cc2ccc(O)cc2)NC(=O)[C@@H]2CCCN2C(=O)[C@@H](CCCCN)NC(=O)[C@H](CCCCN)NC(=O)[C@H](CCCN=C(N)N)NC(=O)[C@H](Cc2ccc(O)cc2)NC1=O` (stereo partly specified) are above 750 and above 40 µM.
The corresponding values for `C[C@H](NC(=O)[C@@H]1CSSC[C@H](NC(=O)[C@H](Cc2ccc3ccccc3c2)NC(=O)[C@H](CCCN=C(N)N)NC(=O)[C@@H](N)CCCN=C(N)N)C(=O)N[C@@H](Cc2ccc(O)cc2)C(=O)N[C@@H](CCCN=C(N)N)C(=O)N[C@@H](CCCCN)C(=O)N[C@H](CCCCN)C(=O)N2CCC[C@H]2C(=O)N[C@@H](Cc2ccc(O)cc2)C(=O)N[C@@H](CCCN=C(N)N)C(=O)N[C@@H](CCCNC(N)=O)C(=O)N1)C(=O)O` are above 210 and above 80 µM.
The corresponding values for `C[C@@H]1NC(=O)[C@@H](CCCCN)NC(=O)[C@H](CCCCN)NC(=O)[C@H](CCCN=C(N)N)NC(=O)[C@H](Cc2ccc(O)cc2)NC(=O)[C@@H](NC(=O)[C@H](Cc2ccc3ccccc3c2)NC(=O)[C@H](CCCN=C(N)N)NC(=O)[C@@H](N)CCCN=C(N)N)CSSC[C@@H](C(=O)N[C@@H](CCCN=C(N)N)C(=O)O)NC(=O)[C@H](CCCNC(N)=O)NC(=O)[C@H](CCCN=C(N)N)NC(=O)[C@H](Cc2ccc(O)cc2)NC1=O` (H-RR[2Nal]CYRK[dK]AYR[Cit]CR-OH; disulfide 4-13) are above 4700 and above 80 µM.

For the origin of these results see ChEMBL document CHEMBL1132828, “Pharmacophore identification of a specific CXCR4 inhibitor, T140, leads to development of effective anti-HIV agents with very high selectivity indexes” (Bioorg Med Chem Lett, 2000).
